Measured values: patent publication US11572384B2, “Unusual substrates of tubulin tyrosine ligase” (FORSCHUNGSVERBUND BERLIN E.V., priority 2016, dated 2023)

Biological target: T1, TTL (Canis lupus familiaris, UniProt A0A8I3N5B1)
T1 construct: His-Tag (N, cleaved yes); Sumo (N, cleaved yes); made in house; host or cells: E. coli BL21 (DE3)
T1 sequence (A0A8I3N5B1 1-377): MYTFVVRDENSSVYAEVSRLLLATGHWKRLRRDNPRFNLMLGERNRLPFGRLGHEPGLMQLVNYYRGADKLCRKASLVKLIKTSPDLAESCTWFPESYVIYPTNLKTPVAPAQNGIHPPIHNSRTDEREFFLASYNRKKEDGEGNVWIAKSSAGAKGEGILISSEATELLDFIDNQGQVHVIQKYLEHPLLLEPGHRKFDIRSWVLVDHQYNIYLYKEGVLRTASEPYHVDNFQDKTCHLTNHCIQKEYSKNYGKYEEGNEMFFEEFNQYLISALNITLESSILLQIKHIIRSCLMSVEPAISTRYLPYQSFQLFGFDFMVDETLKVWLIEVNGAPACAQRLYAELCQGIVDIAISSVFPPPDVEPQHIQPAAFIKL
Test: TTL mediated labelling of Tub-tagged proteins with coumarin derivative 7 (SDS-PAGE, in-gel fluorescence)
Type: biochemical
Conditions: 1 μM TTL, 37°, 1-6 h
Procedure: TTL (Canis lupus) having NCBI Accession number XP_540180.2 was expressed in E. coli (BL21 DE3) as Sumo-TTL fusion protein with an N-terminal His-Tag. Cells were induced with 0.5 mM IPTG and incubated at 18° C. for 18 h. Lysis was performed in presence of Lysozyme (100 μg/ml), DNAse (25 μg/ml) and PMSF (2 mM) followed by sonification (Branson® Sonifier; 16×8sec, 20% Amplitude) and debris centrifugation at 20.000 g for 30 min. His-Sumo-TTL was purified using a 5 ml His-Trap. For removal of the Sumo-Tag, peak fractions were incubated with SenP2 protease at 4° C. overnight. A second His-Trap run then removed the Sumo fraction. Purified protein was then desalted on a PD10 column (GE Healthcare); buffer was exchanged to MES/K pH 6.8 (20 mM MES, 100 mM KCl, 10 mM MgCl2). Protein aliquots were shock-frozen and stored at −80° C. at 0.8 g/l. Functionalization reactions were performed in a 150 μL solution consisting of 20 mM MES/K pH 7.0, 100 mM KCl, 10 mM MgCl2, 2.5 mM ATP, 1 mM (7), 1 μM TTL, 5 μM ubiquitin and 5 mM DTT. The mixture was incubated at 37° for 1-6 h. Proteins were separated and analysed by SDS-PAGE and a ChemiDoc™ XRS+gel imaging system (Bio-Rad, Hercules, Calif., US). Functionalization reactions were performed in a 150 μL solution consisting of 20 mM MES/K pH 7.0, 100 mM KCl, 10 mM MgCl2, 2.5 mM ATP, 1 mM (7), 1 μM TTL, 5 μM nanobody and 5 mM DTT. The mixture was incubated at 37° for 1-6 h. Proteins were separated and analysed by SDS-PAGE and a ChemiDoc™ XRS+gel imaging system (Bio-Rad, Hercules, Calif., US). Functionalization reactions were performed in a 150 μL solution consisting of 20 mM MES/K pH 7.0, 100 mM KCl, 10 mM MgCl2, 2.5 mM ATP, 1 mM (24), 1 μM TTL, 5 μM nanobody and 5 mM DTT. The mixture was incubated at 37° for 1-6 h. Proteins were separated and analysed by SDS-PAGE and a ChemiDoc™ XRS+gel imaging system (Bio-Rad, Hercules, Calif., US).

- TTL mediated functionalization of Tub-tagged Annexin V (SDS-PAGE and in-gel fluorescence (FIG. 10)): successfully functionalized
- TTL mediated functionalization of Tub-tagged GBP nanobody (1 mM (7), 5 μM nanobody, SDS-PAGE and in-gel fluorescence (FIG. 9)): successfully functionalized
- TTL mediated functionalization of Tub-tagged ubiquitin (1 mM (7), 5 μM ubiquitin, SDS-PAGE and in-gel fluorescence (FIG. 8)): successfully functionalized
Structure (SMILES): N[C@@H](Cc1cc(=O)oc2cc(O)ccc12)C(=O)O.O=C(O)C(F)(F)F [compound 7, (1S)-1-Carboxy-2-(7-hydroxy-2-oxo-2H-chromen-4-yl)ethyl ammonium trifluoroacetate]
